According to EPA's ToxValDB 9.5 (doi:10.2903/j.efsa.2010.1828):

Experiments:
Aphidius rhopalosiphi = assay: LR50; higher = less toxic; conditions: not reported; mortality
Folsomia candida = conditions: chronic/long-term; duration: 28 days
Macromiidae = conditions: acute; duration: 72 hours; growth
Colinus virginianus = conditions: acute; oral; mortality
Bird = conditions: short-term; oral; feed; mortality
Apis mellifera = conditions: acute; duration: 48 hours; oral; unspecified; mortality
Tagia sp. = conditions: acute; duration: 14 days; mortality
Bibionidae = conditions: chronic/long-term; duration: 26 days; other
Daphnia magna = conditions: chronic/long-term; duration: 21 days; growth
Coturnix japonica = conditions: reproduction developmental; duration: 8 weeks; reproduction

O=C(Nc1ccccc1)N(Cc1ccc(Cl)cc1)C1CCCC1 [Pencycuron]
LR50 (Aphidius rhopalosiphi): 685 g/ha
LC50 (Oncorhynchus mykiss; acute, duration: 96 hours, mortality): > 0.3 µg/mL
NOEC (Oncorhynchus mykiss; chronic/long-term, duration: 94 days, growth): 0.0832 mg/L
NOEC (Folsomia candida): 60 mg/kg
NOEC (Macromiidae): > 0.3 mg/L
LD50 (Colinus virginianus): > 2000 mg/kg
LC50 (Bird): > 1750 mg/kg-day
LD50 (Apis mellifera): > 98.5 µg/piece
LC50 (Tagia sp.): > 10000 mg/kg
NOEC (Bibionidae): ≥ 0.3 mg/L
NOEC (Daphnia magna): 0.0496 mg/L
NOEL (Coturnix japonica): ≥ 122 mg/kg-day
LD50 (Rattus norvegicus; acute, oral, mortality): > 5000 mg/kg
NOAEL (Rattus norvegicus; chronic, duration: 2 years): 18 mg/kg-day
NOAEL (Rattus norvegicus; reproduction developmental, body weight): 32 mg/kg-day
